Assay results: publication PMC6018746, “Activation of the p53-MDM4 regulatory axis defines the anti-tumour response to PRMT5 inhibition through its role in regulating cellular splicing” (Scientific Reports, 2018)
Like-named read-outs stand apart in the source and are kept apart here.

Test system: panel of hematologic and solid cancer lines
Assay: 6-day in vitro growth/death assay
Type: cell-based, human
Details: read-out: gIC50
Experimental: To further develop these molecules and to guide clinical strategy, it was necessary to understand sensitivity in preclinical models by assessing the anti-tumour activity of the PRMT5 inhibitors in various cancers.
Cell lines were obtained from ATCC or DSMZ and were grown in recommended medium, which was most frequently RPMI-1640 containing 10% FBS. Cell line proliferation assays, Western blotting, qRT-PCR, and cell cycle analyses were performed as described previously[27],[28]. Antibody and gene expression reagents are as described in Supplementary Table 16. All studies were conducted in accordance with the GSK Policy on the Care, Welfare and Treatment of Laboratory Animals and were reviewed by the Institutional Animal Care and Use Committee either at GSK or by the ethical review process at the institution where the work was performed. Detailed descriptions of all methods can be found in the Supplemental Materials.

O=C(NC[C@H](O)CN1CCc2ccccc2C1)c1ccnc(NC2CCC2)c1 [GSK3203591]
IC50 5637: 0.143 µM | IC50 (A172): 0.59 µM | IC50 (BJAB): 3.1 µM | IC50 (DOHH-2): 0.116 µM | IC50 (HCC70): 0.522 µM | IC50 (HCC1143): 0.509 µM | IC50 (HCC1806): 0.261 µM | IC50 (Homo sapiens, 1A2, 1A2): 0.333 µM | IC50 (Homo sapiens, 22Rv1, 22Rv1): 23.5 µM | IC50 (Homo sapiens, 639-V): 0.731 µM | IC50 (Homo sapiens, 647-V): 0.426 µM | IC50 (Homo sapiens, 769-P): > 29.3 µM | IC50 (Homo sapiens, 5637): 0.143 µM | IC50 (Homo sapiens, A 172, A172): 0.59 µM | IC50 (Homo sapiens, A204, A204): > 29 µM | IC50 (Homo sapiens, A498, A498): 0.435 µM | IC50 (Homo sapiens, A549, A549): 0.837 µM | IC50 (Homo sapiens, A-375, A-375): 0.647 µM | IC50 (Homo sapiens, A-427, A427): 0.276 µM | IC50 (Homo sapiens, AML-193): 1.4 µM | IC50 (Homo sapiens, AMO1, AMO-1): 0.337 µM | IC50 (Homo sapiens, ARH-77, ARH-77): 0.238 µM | IC50 (Homo sapiens, ASPC1, ASPC1): 0.424 µM | IC50 (Homo sapiens, BC-3C): 0.408 µM | IC50 (Homo sapiens, BFTC-905, BFTC-905): 0.44 µM | IC50 (Homo sapiens, BJAB): 3.1 µM | IC50 (Homo sapiens, BT-20, BT-20): 8.16 µM | IC50 (Homo sapiens, BT-474, BT-474): 5.74 µM | IC50 (Homo sapiens, BT-549, BT549): 17.8 µM | IC50 (Homo sapiens, CA46, CA-46): 0.58 µM | IC50 (Homo sapiens, CAKI-1, Caki-1): 0.578 µM | IC50 (Homo sapiens, CAL-29): 0.817 µM | IC50 (Homo sapiens, CAL-51, CAL-51): 2.3 µM | IC50 (Homo sapiens, CAL-85-1, CAL-85-1): 1.74 µM | IC50 (Homo sapiens, CAMA-1, CAMA-1): 7.33 µM | IC50 (Homo sapiens, CAPAN-1, CAPAN1): 1.11 µM | IC50 (Homo sapiens, CHP-212, CHP-212): 0.0163 µM | IC50 (Homo sapiens, COLO 201, Colo 201): 0.661 µM | IC50 (Homo sapiens, COLO 205, Colo 205): 0.694 µM | IC50 (Homo sapiens, COLO 320DM, COLO-320DM): 2.35 µM | IC50 (Homo sapiens, COLO-320-HSR, Colo 320 HSR): 2.22 µM | IC50 (Homo sapiens, COLO-741, COLO-741): 2.91 µM | IC50 (Homo sapiens, COR-L23, COR-L23): 0.786 µM | IC50 (Homo sapiens, COR-L105, COR-L105): > 29.3 µM | IC50 (Homo sapiens, Caco-2, CaCo-2): 0.74 µM | IC50 (Homo sapiens, Calu-1, Calu1): > 29.3 µM | IC50 (Homo sapiens, Calu-6, Calu6): 1.28 µM | IC50 (Homo sapiens, Capan-2, CAPAN2): 1.06 µM | IC50 (Homo sapiens, ChaGo-K-1, Cha-Go-K1): 2.82 µM | IC50 (Homo sapiens, DB): 0.347 µM | IC50 (Homo sapiens, DBTRG-05MG, DBTRG05MG): > 29.3 µM | IC50 (Homo sapiens, DLD-1, DLD-1): 2.43 µM | IC50 (Homo sapiens, DMS-114, DMS114): 9.17 µM | IC50 (Homo sapiens, DMS-273, DMS273): 0.262 µM | IC50 (Homo sapiens, DOHH-2, DOHH-2): 0.116 µM | IC50 (Homo sapiens, DU-145, DU145): 3.72 µM | IC50 (Homo sapiens, DU-4475, DU-4475): 1.01 µM | IC50 (Homo sapiens, EBC-1, EBC-1): 0.239 µM | IC50 (Homo sapiens, EFM-19, EFM-19): 0.162 µM | IC50 (Homo sapiens, F-36P): 1.88 µM | IC50 (Homo sapiens, G-361, G-361): 4.36 µM | IC50 (Homo sapiens, G-401, G-401): 0.189 µM | IC50 (Homo sapiens, GDM-1, GDM-1): 0.0423 µM | IC50 (Homo sapiens, GF-D8): 33.2 µM | IC50 (Homo sapiens, HCC38, HCC38): 0.127 µM | IC50 (Homo sapiens, HCC70, HCC70): 0.522 µM | IC50 (Homo sapiens, HCC827, HCC827): 21 µM | IC50 (Homo sapiens, HCC1143, HCC1143): 0.509 µM | IC50 (Homo sapiens, HCC1395, HCC1395): 14.7 µM | IC50 (Homo sapiens, HCC1569, HCC1569): 11.3 µM | IC50 (Homo sapiens, HCC1806, HCC1806): 0.261 µM | IC50 (Homo sapiens, HCC1937, HCC1937): 0.957 µM | IC50 (Homo sapiens, HCC2935, HCC2935): 21.6 µM | IC50 (Homo sapiens, HCC4006, HCC4006): 0.17 µM | IC50 (Homo sapiens, HCT-15, HCT-15): 1.25 µM | IC50 (Homo sapiens, HCT-116, HCT-116): 10 µM | IC50 (Homo sapiens, HD-MY-Z): 0.143 µM | IC50 (Homo sapiens, HEL 92.1.7, HEL 92.1.7): 12.4 µM | IC50 (Homo sapiens, HL-60, HL60): 4.27 µM | IC50 (Homo sapiens, HOS): > 29 µM | IC50 (Homo sapiens, HPAC): 0.901 µM | IC50 (Homo sapiens, HPAF-II, HPAFII): 0.957 µM | IC50 (Homo sapiens, HT115, HT115): 1.74 µM | IC50 (Homo sapiens, HT-29, HT-29): 1.81 µM | IC50 (Homo sapiens, HT-144, HT-144): 1.05 µM | IC50 (Homo sapiens, HT-1376, HT-1376): 13.1 µM | IC50 (Homo sapiens, HT): 0.272 µM | IC50 (Homo sapiens, Hs 445, Hs445): 0.976 µM | IC50 (Homo sapiens, Hs766T): 1.97 µM | IC50 (Homo sapiens, Hs-578T, Hs578t): 18.2 µM | IC50 (Homo sapiens, HuNS1, Huns1): 0.887 µM | IC50 (Homo sapiens, HuP-T3, HuP-T3): 3.39 µM | IC50 (Homo sapiens, HuP-T4, HuP-T4): 0.19 µM | IC50 (Homo sapiens, HuT78, HuT78): 0.103 µM | IC50 (Homo sapiens, IGR-1, IGR-1): 8.76 µM | IC50 (Homo sapiens, IGROV-1, IGROV-1): 0.189 µM | IC50 (Homo sapiens, J82, J82): 20.9 µM | IC50 (Homo sapiens, JJN-3, JJN3): 0.164 µM | IC50 (Homo sapiens, JM1, JM1): 0.0758 µM | IC50 (Homo sapiens, JMSU-1, JMSU-1): 0.583 µM | IC50 (Homo sapiens, JVM-2, JVM-2): 0.172 µM | IC50 (Homo sapiens, JY): 0.0951 µM | IC50 (Homo sapiens, JeKo-1, JeKo-1): 6.19 µM | IC50 (Homo sapiens, K562, K562): 0.31 µM | IC50 (Homo sapiens, KMS-11, KMS-11): 0.0468 µM | IC50 (Homo sapiens, KMS-12-BM): 0.191 µM | IC50 (Homo sapiens, KO52): 0.513 µM | IC50 (Homo sapiens, KP-3): 0.0999 µM | IC50 (Homo sapiens, KP-4, KP-4): 20.8 µM | IC50 (Homo sapiens, KPL-1, KPL-1): 4.11 µM | IC50 (Homo sapiens, KS-1): 0.0855 µM | IC50 (Homo sapiens, KU-19-19, KU-19-19): 1.11 µM | IC50 (Homo sapiens, Kasumi 1, KASUMI-1): 13.2 µM | IC50 (Homo sapiens, L-363, L363): 0.0657 µM | IC50 (Homo sapiens, L-428, L-428): 0.665 µM | IC50 (Homo sapiens, LC-1sq): 7.59 µM | IC50 (Homo sapiens, LK-2, LK2): 0.0899 µM | IC50 (Homo sapiens, LN-18, LN-18): 9.68 µM | IC50 (Homo sapiens, LN-229, LN-229): 1.15 µM | IC50 (Homo sapiens, LNCaP): 18.9 µM | IC50 (Homo sapiens, LP-1, LP1): 0.975 µM | IC50 (Homo sapiens, LS-411N, Ls411N): 0.442 µM | IC50 (Homo sapiens, LoVo): 0.494 µM | IC50 (Homo sapiens, Lu-65, LU65): 0.463 µM | IC50 (Homo sapiens, Lu-99, LU-99): 5.3 µM | IC50 (Homo sapiens, M059J): 18.9 µM | IC50 (Homo sapiens, M059K): 7.89 µM | IC50 (Homo sapiens, MC116, MC116): 0.082 µM | IC50 (Homo sapiens, MC/CAR): 2.74 µM | IC50 (Homo sapiens, MCF7, MCF-7): 0.215 µM | IC50 (Homo sapiens, MDA-MB-157, MDA-MB-157): 3.25 µM | IC50 (Homo sapiens, MDA-MB-231, MDA-MB-231): 2.93 µM | IC50 (Homo sapiens, MDA-MB-435S): 2.22 µM | IC50 (Homo sapiens, MDA-MB-436, MDA-MB-436): 7.13 µM | IC50 (Homo sapiens, MDA-MB-453, MDA-MB-453): 0.343 µM | IC50 (Homo sapiens, MDA-MB-468, MDA-MB-468): 0.585 µM | IC50 (Homo sapiens, ME-1, ME1): 2.45 µM | IC50 (Homo sapiens, MEL-HO): 1.55 µM | IC50 (Homo sapiens, MEL-JUSO): 0.0793 µM | IC50 (Homo sapiens, MHH-PREB-1, MHH-PREB-1): 3.3 µM | IC50 (Homo sapiens, MIA PaCa-2, Miapaca-2): 0.263 µM | IC50 (Homo sapiens, MINO): 0.536 µM | IC50 (Homo sapiens, ML-2, ML-2): 0.115 µM | IC50 (Homo sapiens, MOLM16, MOLM-16): 31 µM | IC50 (Homo sapiens, MOLM-13, MOLM-13): 0.0862 µM | IC50 (Homo sapiens, MOLP-2, MOLP-2): 22.1 µM | IC50 (Homo sapiens, MONO-MAC-6, MonoMac6): 0.196 µM | IC50 (Homo sapiens, MV4-11, MV-4-11): 0.0947 µM | IC50 (Homo sapiens, Maver1, MAVER-1): 0.133 µM | IC50 (Homo sapiens, NALM-6, NALM-6): 1.06 µM | IC50 (Homo sapiens, NB-4, NB-4): 0.0809 µM | IC50 (Homo sapiens, NCI-H146, NCI-H146): 0.411 µM | IC50 (Homo sapiens, NCI-H292, NCI-H292): 1.34 µM | IC50 (Homo sapiens, NCI-H322, NCI-H322): 1.7 µM | IC50 (Homo sapiens, NCI-H441, NCI-H441): 22.4 µM | IC50 (Homo sapiens, NCI-H520, NCI-H520): 0.0261 µM | IC50 (Homo sapiens, NCI-H522, NCI-H522): > 29.3 µM | IC50 (Homo sapiens, NCI-H526, NCI-H526): 0.138 µM | IC50 (Homo sapiens, NCI-H526-R): 0.219 µM | IC50 (Homo sapiens, NCI-H647, NCI-H647): 2.53 µM | IC50 (Homo sapiens, NCI-H661, NCI-H661): 30.8 µM
